According to paper PMC3914206:

How the values were obtained:
Format in all cases: binding
Details in all cases: Compound Concentration 10 µM
panel of 442 kinases [1] = target: T1, panel of 442 kinases (Homo sapiens, UniProt P10721, A829P)
T1 construct: purchased KINOMEscan
Source text: (§1) We assessed the selectivity of members of this scaffold using the KINOMEscan methodology across a near comprehensive panel of 442 kinases [[18,27]].

panel of 442 kinases [2] = target: T2, panel of 442 kinases (Homo sapiens, UniProt Q13976)
T2 construct: purchased KINOMEscan
T2 sequence (Q13976 1-671): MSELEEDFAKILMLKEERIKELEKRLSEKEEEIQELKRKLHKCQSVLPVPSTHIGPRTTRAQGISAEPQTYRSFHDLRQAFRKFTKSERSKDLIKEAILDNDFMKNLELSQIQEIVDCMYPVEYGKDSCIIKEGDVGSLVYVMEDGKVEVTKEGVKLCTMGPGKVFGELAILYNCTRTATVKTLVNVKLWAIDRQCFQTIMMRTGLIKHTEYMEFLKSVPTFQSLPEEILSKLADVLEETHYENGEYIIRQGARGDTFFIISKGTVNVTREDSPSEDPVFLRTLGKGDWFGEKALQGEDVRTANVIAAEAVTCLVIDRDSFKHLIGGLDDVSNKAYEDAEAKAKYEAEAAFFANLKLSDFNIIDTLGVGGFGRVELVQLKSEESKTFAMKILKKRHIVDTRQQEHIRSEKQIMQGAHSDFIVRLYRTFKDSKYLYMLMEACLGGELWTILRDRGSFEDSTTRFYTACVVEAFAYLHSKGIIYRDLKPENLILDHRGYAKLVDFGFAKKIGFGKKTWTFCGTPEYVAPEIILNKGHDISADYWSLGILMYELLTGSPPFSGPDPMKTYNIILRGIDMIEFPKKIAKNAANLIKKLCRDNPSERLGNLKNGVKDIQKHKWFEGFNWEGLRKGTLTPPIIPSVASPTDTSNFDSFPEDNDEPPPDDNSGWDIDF
Source text: as §1

panel of 442 kinases [3] = target: T3, panel of 442 kinases (Homo sapiens, UniProt P21860)
T3 construct: purchased KINOMEscan
T3 sequence (P21860 20-1342): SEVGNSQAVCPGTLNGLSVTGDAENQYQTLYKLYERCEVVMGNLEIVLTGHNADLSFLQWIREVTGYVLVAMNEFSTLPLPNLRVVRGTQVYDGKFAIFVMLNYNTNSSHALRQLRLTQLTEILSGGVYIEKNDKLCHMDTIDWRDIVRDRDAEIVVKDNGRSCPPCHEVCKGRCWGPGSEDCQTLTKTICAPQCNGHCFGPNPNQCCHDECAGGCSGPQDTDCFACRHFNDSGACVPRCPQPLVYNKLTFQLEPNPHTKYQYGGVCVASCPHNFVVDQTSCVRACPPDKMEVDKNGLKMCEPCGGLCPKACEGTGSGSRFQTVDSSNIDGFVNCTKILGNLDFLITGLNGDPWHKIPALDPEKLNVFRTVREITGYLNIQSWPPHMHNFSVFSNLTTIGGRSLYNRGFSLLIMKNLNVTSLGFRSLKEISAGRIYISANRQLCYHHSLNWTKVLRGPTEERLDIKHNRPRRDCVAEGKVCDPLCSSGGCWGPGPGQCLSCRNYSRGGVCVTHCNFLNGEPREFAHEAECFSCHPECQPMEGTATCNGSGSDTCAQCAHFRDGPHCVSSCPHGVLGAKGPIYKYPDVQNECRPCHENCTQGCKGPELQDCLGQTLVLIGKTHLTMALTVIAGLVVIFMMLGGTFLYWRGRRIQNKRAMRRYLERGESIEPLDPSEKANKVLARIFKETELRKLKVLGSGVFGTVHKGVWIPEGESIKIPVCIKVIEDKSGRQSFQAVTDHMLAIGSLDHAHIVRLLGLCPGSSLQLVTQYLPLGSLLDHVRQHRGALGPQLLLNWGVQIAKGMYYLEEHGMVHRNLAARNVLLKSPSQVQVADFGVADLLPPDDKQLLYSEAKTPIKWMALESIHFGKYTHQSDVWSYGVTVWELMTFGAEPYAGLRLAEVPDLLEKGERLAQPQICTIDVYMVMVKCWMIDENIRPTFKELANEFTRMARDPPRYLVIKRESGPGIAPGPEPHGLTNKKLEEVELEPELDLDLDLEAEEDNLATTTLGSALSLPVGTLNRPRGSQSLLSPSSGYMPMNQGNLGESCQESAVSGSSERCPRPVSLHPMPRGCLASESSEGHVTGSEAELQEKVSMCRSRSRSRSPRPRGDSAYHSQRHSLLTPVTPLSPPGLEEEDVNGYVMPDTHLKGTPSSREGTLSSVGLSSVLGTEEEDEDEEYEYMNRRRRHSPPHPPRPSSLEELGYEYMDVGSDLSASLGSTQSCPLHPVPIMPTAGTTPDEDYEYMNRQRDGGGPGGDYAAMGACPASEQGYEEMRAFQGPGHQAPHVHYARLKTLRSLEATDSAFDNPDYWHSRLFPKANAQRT
Source text: as §1

T1 sequence (P10721 26-976 A829P): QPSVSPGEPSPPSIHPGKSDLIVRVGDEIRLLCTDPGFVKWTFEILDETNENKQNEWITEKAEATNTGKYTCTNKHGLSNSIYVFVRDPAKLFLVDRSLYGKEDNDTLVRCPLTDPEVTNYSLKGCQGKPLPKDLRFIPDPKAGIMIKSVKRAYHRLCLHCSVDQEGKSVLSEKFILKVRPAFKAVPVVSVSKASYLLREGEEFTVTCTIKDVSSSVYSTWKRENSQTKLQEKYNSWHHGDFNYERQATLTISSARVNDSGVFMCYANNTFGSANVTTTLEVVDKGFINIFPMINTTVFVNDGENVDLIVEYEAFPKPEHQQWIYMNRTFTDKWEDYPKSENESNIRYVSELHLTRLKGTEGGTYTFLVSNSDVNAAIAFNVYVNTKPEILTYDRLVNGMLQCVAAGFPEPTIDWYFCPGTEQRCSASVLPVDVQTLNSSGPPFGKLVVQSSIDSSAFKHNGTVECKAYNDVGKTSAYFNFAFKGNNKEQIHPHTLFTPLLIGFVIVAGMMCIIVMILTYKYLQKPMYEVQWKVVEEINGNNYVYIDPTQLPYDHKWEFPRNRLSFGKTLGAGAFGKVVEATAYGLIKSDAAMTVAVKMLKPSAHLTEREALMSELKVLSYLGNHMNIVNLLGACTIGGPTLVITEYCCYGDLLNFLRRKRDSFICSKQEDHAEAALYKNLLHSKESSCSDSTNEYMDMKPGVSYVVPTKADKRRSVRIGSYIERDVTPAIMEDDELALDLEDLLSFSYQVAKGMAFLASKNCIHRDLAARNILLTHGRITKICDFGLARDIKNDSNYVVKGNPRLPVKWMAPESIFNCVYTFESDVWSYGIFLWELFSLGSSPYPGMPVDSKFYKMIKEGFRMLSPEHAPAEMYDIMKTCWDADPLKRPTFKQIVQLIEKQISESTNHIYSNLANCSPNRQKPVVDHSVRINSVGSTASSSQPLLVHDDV

Row | Structure (SMILES) | KINOMEscan: KIT(A829P) (panel of 442 kinases [1]) | KINOMEscan: PRKG1 (panel of 442 kinases [2]) | KINOMEscan: ERBB3 (panel of 442 kinases [3])
1 | COc1cc(C(=O)N2CCC(N3CCN(C)CC3)CC2)ccc1Nc1ncc2c(n1)N(C)c1ccccc1C(=O)N2C [15 (LRRK2-IN-1)] | 100 | 98 | 100
2 | COc1cc(C(=O)N2CCC(N3CCN(C)CC3)CC2)ccc1Nc1ncc2c(n1)N(C1CCCC1)c1ccccc1C(=O)N2C [Compound 25, 11-cyclopentyl-2-((2-methoxy-4-(4-(4-methylpiperazin-1-yl)piperidine-1-carbonyl)phenyl)amino)-5-methyl-5H-benzo[e]pyrimido[5,4-b][1,4]diazepin-6(11H)-one] | 95 | 100 | 100
3 | CCOc1cc(C(=O)N2CCC(N3CCN(C)CC3)CC2)ccc1Nc1ncc2c(n1)N(C1CCCC1)c1ccccc1C(=O)N2C [Compound 26] | 74 | 100 | 100
